{"source": "patent US20150374815A1", "about": "“METHODS AND COMPOSITIONS FOR TREATMENT WITH SYNTHETIC NANOCARRIERS AND IMMUNE CHECKPOINT INHIBITORS” (Selecta Biosciences, Inc., priority 2014, published 2015)", "key": {"[1]": {"system": "TNF-α", "assay": "Serum cytokine induction after NC-CpG or free CpG inoculation (ELISA)", "type": "in vivo", "conditions": "s.c.; 100 μg NC-CpG (containing 5% CpG-1826) or 5 μg free CpG-1826; pooled sera, 3/group; FIG. 4", "procedure": "(§1) TNF-α and IL-6 were induced in sera of NC-CpG- and free CpG-inoculated animals. Animal groups were inoculated (s.c.) either with 100 μg of NC-CpG (containing 5% CpG-1826) or with 5 μg of free CpG-1826. At different time-points post inoculation serum was collected from the animals (3/group) by terminal bleed, pooled and assayed for cytokine presence in ELISA (BD)."}, "[2]": {"system": "IL-6", "assay": "Serum cytokine induction after NC-CpG or free CpG inoculation (ELISA)", "type": "in vivo", "conditions": "s.c.; 100 μg NC-CpG (containing 5% CpG-1826) or 5 μg free CpG-1826; pooled sera, 3/group; FIG. 4", "procedure": "as §1"}}, "note": "“Also recorded” adds a separate entry of the source."}
{"substance": "5′-TCCATGACGTTCCTGACGTT-3′ [free CpG]", "values": [{"measurement": "induction of TNF-α in serum", "setting": "[1]", "result": "induced; also recorded: substantially higher induction"}, {"measurement": "induction of IL-6 in serum", "setting": "[2]", "result": "induced; also recorded: substantially higher induction"}]}
